Earlier results on one molecule are cited in patent US20120015899A1 (priority 2008, published 2012).

A word on the pKa: it is the pH at which an ionisable group is half protonated.

Take `Cl.Nc1ccn([C@@H]2O[C@H](CO)[C@@H](O)C2(F)F)c(=O)n1` [Gemcitabine, Cytidine, 2′-deoxy-2′,2′-difluoro-, monohydrochloride]: the pKa is given as 3.58.
